In ChEMBL document CHEMBL5390231, “Development of small molecule inhibitors targeting RNA helicase DHX33 as anti-cancer agents” (Bioorg Med Chem Lett, 2023):

Assays:
[1] = target: T1, Probable ATP-dependent RNA helicase DDX6 (Homo sapiens, UniProt P26196); assay: Inhibition of N-terminal thioredoxin-tagged human recombinant DDX6 transformed in Escherichia coli BL21(DE3)pLysS cells
T1 sequence (P26196 whole entry): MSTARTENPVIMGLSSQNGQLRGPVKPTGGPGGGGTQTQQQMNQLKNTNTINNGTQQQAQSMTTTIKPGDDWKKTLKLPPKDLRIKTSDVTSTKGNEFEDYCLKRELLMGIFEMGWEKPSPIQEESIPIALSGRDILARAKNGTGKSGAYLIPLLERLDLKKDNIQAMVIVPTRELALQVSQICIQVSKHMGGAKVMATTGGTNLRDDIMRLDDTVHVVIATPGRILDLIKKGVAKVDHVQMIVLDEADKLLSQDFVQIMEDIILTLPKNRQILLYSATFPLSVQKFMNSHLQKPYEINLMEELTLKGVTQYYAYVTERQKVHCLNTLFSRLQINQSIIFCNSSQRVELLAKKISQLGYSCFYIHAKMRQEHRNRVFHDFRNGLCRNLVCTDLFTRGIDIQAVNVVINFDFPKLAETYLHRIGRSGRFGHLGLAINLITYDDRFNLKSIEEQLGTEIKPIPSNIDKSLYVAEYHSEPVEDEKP

[2] = target: T2, Probable ATP-dependent RNA helicase DHX40 (Homo sapiens, UniProt Q8IX18); assay: Inhibition of N-terminal thioredoxin-tagged human recombinant DHX40 transformed in Escherichia coli BL21(DE3)pLysS cells
T2 sequence (Q8IX18 whole entry): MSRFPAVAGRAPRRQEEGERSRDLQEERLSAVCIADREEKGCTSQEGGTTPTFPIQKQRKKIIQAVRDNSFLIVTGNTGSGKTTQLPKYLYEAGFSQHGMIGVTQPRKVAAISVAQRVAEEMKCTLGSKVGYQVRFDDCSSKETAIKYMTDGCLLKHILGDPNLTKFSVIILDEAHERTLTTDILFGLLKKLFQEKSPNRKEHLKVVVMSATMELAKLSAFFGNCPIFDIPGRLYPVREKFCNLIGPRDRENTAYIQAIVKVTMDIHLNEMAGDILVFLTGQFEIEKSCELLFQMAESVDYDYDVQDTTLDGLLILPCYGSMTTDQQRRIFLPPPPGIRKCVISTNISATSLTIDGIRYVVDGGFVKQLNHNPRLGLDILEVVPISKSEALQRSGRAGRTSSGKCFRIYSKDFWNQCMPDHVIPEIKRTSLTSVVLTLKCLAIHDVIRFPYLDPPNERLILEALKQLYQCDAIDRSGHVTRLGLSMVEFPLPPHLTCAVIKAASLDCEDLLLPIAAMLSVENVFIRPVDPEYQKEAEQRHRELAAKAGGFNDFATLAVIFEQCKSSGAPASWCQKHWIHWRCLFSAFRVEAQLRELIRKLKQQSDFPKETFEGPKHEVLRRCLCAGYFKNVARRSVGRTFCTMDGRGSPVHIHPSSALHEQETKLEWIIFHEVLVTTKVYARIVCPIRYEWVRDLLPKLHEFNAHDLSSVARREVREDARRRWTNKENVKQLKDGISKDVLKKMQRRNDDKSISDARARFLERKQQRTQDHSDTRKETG

[3] = target: ATP-dependent RNA helicase DHX15 (Homo sapiens, UniProt O43143); assay: Inhibition of N-terminal thioredoxin-tagged human recombinant DHX15 transformed in Escherichia coli BL21(DE3)pLysS cells
Sequence of ATP-dependent RNA helicase DHX15 (O43143 whole entry): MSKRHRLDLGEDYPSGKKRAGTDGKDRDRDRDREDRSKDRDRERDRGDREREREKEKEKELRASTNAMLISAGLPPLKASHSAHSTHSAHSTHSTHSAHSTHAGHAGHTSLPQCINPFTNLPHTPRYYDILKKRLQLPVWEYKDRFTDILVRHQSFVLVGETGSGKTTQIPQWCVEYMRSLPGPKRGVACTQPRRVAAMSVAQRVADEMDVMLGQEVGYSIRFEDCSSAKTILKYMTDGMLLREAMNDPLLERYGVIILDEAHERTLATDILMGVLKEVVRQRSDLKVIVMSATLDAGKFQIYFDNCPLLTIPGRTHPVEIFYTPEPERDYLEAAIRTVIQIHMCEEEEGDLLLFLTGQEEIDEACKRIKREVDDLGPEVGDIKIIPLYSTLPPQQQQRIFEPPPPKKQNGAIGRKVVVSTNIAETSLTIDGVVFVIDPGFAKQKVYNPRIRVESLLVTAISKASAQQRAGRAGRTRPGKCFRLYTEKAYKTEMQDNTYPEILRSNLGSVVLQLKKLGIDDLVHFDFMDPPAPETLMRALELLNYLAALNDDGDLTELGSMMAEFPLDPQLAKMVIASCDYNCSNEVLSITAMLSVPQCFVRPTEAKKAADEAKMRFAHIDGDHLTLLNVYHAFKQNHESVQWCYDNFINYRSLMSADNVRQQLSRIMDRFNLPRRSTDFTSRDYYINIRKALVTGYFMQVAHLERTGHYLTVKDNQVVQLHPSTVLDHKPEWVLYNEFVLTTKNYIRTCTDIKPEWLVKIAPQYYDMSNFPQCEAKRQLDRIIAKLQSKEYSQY

[4] = target: T3, Probable ATP-dependent RNA helicase DHX35 (Homo sapiens, UniProt Q9H5Z1); assay: Inhibition of N-terminal thioredoxin-tagged human recombinant DHX35 transformed in Escherichia coli BL21(DE3)pLysS cells
T3 sequence (Q9H5Z1 whole entry): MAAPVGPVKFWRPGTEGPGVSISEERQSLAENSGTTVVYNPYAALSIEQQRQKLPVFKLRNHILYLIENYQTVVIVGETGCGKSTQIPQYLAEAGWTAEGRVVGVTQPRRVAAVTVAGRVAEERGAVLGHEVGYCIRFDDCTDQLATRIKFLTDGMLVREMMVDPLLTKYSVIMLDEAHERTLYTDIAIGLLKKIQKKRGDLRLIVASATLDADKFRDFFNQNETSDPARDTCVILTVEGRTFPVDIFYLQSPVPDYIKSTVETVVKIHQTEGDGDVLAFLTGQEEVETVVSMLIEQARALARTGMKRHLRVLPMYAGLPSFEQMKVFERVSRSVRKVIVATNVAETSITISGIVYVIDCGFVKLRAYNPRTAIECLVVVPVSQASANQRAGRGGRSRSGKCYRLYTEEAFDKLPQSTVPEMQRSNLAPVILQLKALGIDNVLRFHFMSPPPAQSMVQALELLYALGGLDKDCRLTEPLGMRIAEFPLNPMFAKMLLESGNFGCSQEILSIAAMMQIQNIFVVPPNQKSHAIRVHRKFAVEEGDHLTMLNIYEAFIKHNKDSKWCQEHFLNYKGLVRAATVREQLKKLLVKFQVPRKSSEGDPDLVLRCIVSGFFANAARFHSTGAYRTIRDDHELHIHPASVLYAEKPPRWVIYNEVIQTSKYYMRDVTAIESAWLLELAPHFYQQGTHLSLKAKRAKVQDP

[5] = target: T4, Probable ATP-dependent RNA helicase DDX59 (Homo sapiens, UniProt Q5T1V6); assay: Inhibition of C-terminal 6xHis-tagged human recombinant DDX59 transformed in Escherichia coli BL21(DE3)pLysS cells
T4 sequence (Q5T1V6 whole entry): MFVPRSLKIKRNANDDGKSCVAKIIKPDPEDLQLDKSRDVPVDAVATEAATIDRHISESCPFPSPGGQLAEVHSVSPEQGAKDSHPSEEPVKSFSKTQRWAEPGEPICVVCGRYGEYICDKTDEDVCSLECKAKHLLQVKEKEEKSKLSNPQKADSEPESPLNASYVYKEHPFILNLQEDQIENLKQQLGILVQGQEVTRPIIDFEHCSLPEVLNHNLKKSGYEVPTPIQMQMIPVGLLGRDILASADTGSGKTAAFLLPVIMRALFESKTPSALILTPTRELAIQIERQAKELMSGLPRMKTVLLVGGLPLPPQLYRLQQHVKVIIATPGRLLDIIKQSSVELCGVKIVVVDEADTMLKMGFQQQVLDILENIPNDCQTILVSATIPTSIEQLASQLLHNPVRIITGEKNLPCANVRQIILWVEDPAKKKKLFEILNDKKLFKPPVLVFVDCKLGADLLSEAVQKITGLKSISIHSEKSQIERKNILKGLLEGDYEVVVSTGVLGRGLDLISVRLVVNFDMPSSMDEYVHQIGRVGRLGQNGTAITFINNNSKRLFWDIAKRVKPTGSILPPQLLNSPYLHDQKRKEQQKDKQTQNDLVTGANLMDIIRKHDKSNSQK

IC50 [1]: > 100 µM
IC50 [2]: > 100 µM
IC50 [3]: 6.3 µM
IC50 [4]: 117 µM
IC50 [5]: > 100 µM
Structure (SMILES): COc1ccc2nc(NC(=O)c3cc(C)n(-c4sc(C)cc4C#N)c3C)[nH]c2c1
